SMILES strings stand for the structures. pIC50: −log10 of the molar value.

From ChEMBL document CHEMBL4406812, “Synthesis of quinones with highlighted biological applications: A critical update on the strategies towards bioactive compounds with emphasis on lapachones” (Eur J Med Chem, 2019) come the findings set out here.

In experiment [1] the test system is Trypanosoma cruzi. Kind of experiment: Anti-parasitic activity against Trypanosoma cruzi. Type of experiment: functional, organism-based.
Experiment [2] has as its system Trypanosoma cruzi. Description: Anti-parasitic activity against epimastigotes form of Trypanosoma cruzi. Type of experiment: functional, organism-based.
The subject of experiment [3] is MDA-MB-435. Description: Anticancer activity against human MDA-MB-435 cells. Type of experiment: functional, cell-based.
The subject of another experiment is HepG2. Description: Cytotoxicity against human HepG2 cells assessed as reduction in cell viability after 48 hrs by MTT assay. Type of experiment: functional, cell-based. To be noted: HepG2, 48 h. In general terms: Tetrazolium assays rely on reduction of a dye to a coloured formazan, in cell work by metabolically active cells.
A further experiment relates to L02. Description: Cytotoxicity against human LO2 cells assessed as reduction in cell viability after 48 hrs by MTT assay. Type of experiment: functional, cell-based. To be noted: L02, 48 h.
Experiment [4] deals with Trypanosoma cruzi. Kind of experiment: Trypanocidal activity against Trypanosoma cruzi Y strain bloodstream trypomastigotes isolated from infected Swiss mouse after 24 hrs by Neubauer chamber method. Type of experiment: functional, organism-based.
Experiment [5] deals with HL-60. Description: Anticancer activity against human HL60 cells. Type of experiment: functional, cell-based.
The subject of experiment [6] is SF-295. Kind of experiment: Anticancer activity against human SF295 cells. Type of experiment: functional, cell-based.
The next experiment deals with PBMC. Kind of experiment: Cytotoxicity against human PBMC. Type of experiment: cell-based.
A further experiment has as its system HCT-8. Description: Anticancer activity against human HCT8 cells. Type of experiment: functional, cell-based.
Experiment [7] has as its system Trypanosoma cruzi. Kind of experiment: Anti-parasitic activity against trypomastigotes form of Trypanosoma cruzi after 24 hrs. Type of experiment: functional, organism-based.
The test system of a further experiment is LNCaP. Description: Anticancer activity against human LNCAP cells after 72 to 102 hrs by MTT assay. Type of experiment: functional, cell-based.
The subject of the next experiment is Vero. Description: Cytotoxicity against African green monkey Vero cells assessed as reduction in cell viability after 48 hrs by MTT assay. Type of experiment: cell-based. As to conditions: Chlorocebus sabaeus.
Another experiment concerns HeLa. Kind of experiment: Cytotoxicity against human HeLa cells assessed as reduction in cell viability after 48 hrs by MTT assay. Type of experiment: functional, cell-based.
In another experiment the test system is KB. Description: Cytotoxicity against human KB cells assessed as reduction in cell viability after 48 hrs by MTT assay. Type of experiment: functional, cell-based.
The test system of experiment [8] is SF-295. Description: Cytotoxicity against human SF295 cells assessed as reduction in cell viability after 72 hrs by MTT assay. Type of experiment: functional, cell-based. As to conditions: SF-295, 72 h.
The next experiment has as its system SW-620. Description: Cytotoxicity against human SW620 cells assessed as reduction in cell viability after 72 hrs by MTT assay. Type of experiment: functional, cell-based. To be noted: SW-620, 72 h.
The test system of experiment [9] is Hs-578T. Kind of experiment: Cytotoxicity against human Hs 578T cells assessed as reduction in cell viability after 72 hrs by MTT assay. Type of experiment: functional, cell-based.
A further experiment deals with NCI-H358. Description: Cytotoxicity against human NCI-H358 cells assessed as reduction in cell viability after 72 hrs by MTT assay. Type of experiment: functional, cell-based. To be noted: NCI-H358, 72 h.
Experiment [10] has as its system Hs-578T. Kind of experiment: Cytotoxicity against human Hs578T cells assessed as reduction in cell viability after 72 hrs by MTT assay. Type of experiment: functional, cell-based.
Experiment [11] relates to MDA-MB-435. Kind of experiment: Cytotoxicity against human MDA-MB-435 cells assessed as reduction in cell viability after 72 hrs by MTT assay. Type of experiment: functional, cell-based. As to conditions: MDA-MB-435, 72 h.
The test system of the next experiment is PC-3. Kind of experiment: Anticancer activity against human PC3 cells after 72 to 102 hrs by MTT assay. Type of experiment: functional, cell-based.
The test system of another experiment is L929. Kind of experiment: Anticancer activity against mouse L929 cells. Type of experiment: functional, cell-based.
Experiment [12] relates to HCT-116. Kind of experiment: Anticancer activity against human HCT116 cells. Type of experiment: functional, cell-based.
The subject of experiment [13] is Trypanosoma cruzi. Kind of experiment: Potency index, ratio of beta-lapachone IC50 to compound IC50 for Trypanosoma cruzi after 24 hrs. Type of experiment: functional, organism-based.
For experiment [14], the system named is Trypanosoma cruzi. Description: Anti-parasitic activity against amastigote form of Trypanosoma cruzi after 24 hrs. Type of experiment: functional, organism-based.
A further experiment has as its system MCF7. Description: Anticancer activity against human MCF7 cells. Type of experiment: functional, cell-based.
Experiment [15] deals with SF-295. Description: Anticancer activity against human SF295 cells by MTT assay. Type of experiment: functional, cell-based.
The subject of a further experiment is OVCAR-8. Kind of experiment: Anticancer activity against human OVCAR8 cells by MTT assay. Type of experiment: functional, cell-based.
In experiment [16] the test system is HCT-116. Kind of experiment: Anticancer activity against human HCT116 cells by MTT assay. Type of experiment: functional, cell-based.
Experiment [17] concerns HL-60. Kind of experiment: Anticancer activity against human HL60 cells by MTT assay. Type of experiment: functional, cell-based.

As a reminder, the pIC50 is −log10 of the IC50, conventionally taken in molar units. For `Nc1c(I)ccc2c1C(=O)C=CC2=O`, the pIC50 with Trypanosoma cruzi [1] is 6.22.

For `Cc1cc(I)c2c(c1)C(=O)C=CC2=O`, the pIC50 in the experiment with Trypanosoma cruzi [1] was 6.30.

The molecule `CCC(C)OP(=O)(N/N=C1\C(=O)C2=C(OC(C)(C)CC2)c2ccccc21)OC(C)CC` (stereo not given) gave a pIC50 in the experiment with Trypanosoma cruzi [2] of 4.72.

Molecule `COc1ccc(/N=C2\C(=O)C3=C(OC(C)(C)CC3)c3ccccc32)cc1` showed a pIC50 with MDA-MB-435 [3] of 8.00.

`Nc1nnn[nH]1`: the pIC50 with HepG2 and in the experiment with L02 was 4.44 to 5.54 throughout.

In the case of `CCOC(=O)/C=C/c1cccc2c1C(=O)C=CC2=O`, the pIC50 in the experiment with Trypanosoma cruzi [4] was 4.20.

Regarding `CC1(C)CC(Nc2ccc(Cl)cc2)C2=C(O1)C(=O)c1ccccc1C2=O` (stereo not given), the pIC50 in the experiment on HL-60 [5], in the experiment with SF-295 [6], in the experiment with PBMC, with MDA-MB-435 [3] and in the experiment on HCT-8 was 6.43 to 7.15 each time.

Regarding `Cc1ccc2c(c1)C1(C(=O)N2)C2=C(N=C3N=NNN31)c1ccccc1C(=O)C2=O` (stereo not given), the negative logarithm of the IC50 (pIC50) in the experiment on HepG2 and with L02 was 4.44 to 5.54 each time.

As to `COc1ccc2c(c1)NC(=O)C21C2=C(N=C3N=NNN31)c1ccccc1C(=O)C2=O` (stereo not given), the pIC50 in the experiment with HepG2 and with L02 was 4.44 to 5.54 each time.

For `O=C1C(=O)c2ccccc2C2=C1C1(C(=O)Nc3ccc(Br)cc31)N1NN=NC1=N2` (stereo not given), the pIC50 in the experiment on HepG2 and in the experiment on L02 was 4.44 to 5.54 in each case.

As to `O=C1C=CC(=O)c2c(Sc3ccc(Br)cc3)cccc21`, the negative logarithm of the IC50 (pIC50) in the experiment on Trypanosoma cruzi [7] was 5.18.

Take `O=C1C(=O)c2ccccc2C2=C1CCCO2`: the pIC50 in the experiment with LNCaP was 5.56; in the experiment with HepG2, 6.05; in the experiment on Vero, 6.00; with HeLa, 6.05; in the experiment on KB, 5.49.

Consider `CC1(C)OC2=C(C(=O)C(=O)c3ccccc32)C1n1cc(-c2ccc(Nc3ccccn3)c3nsnc23)nn1` (stereo not given), for which the pIC50 with SF-295 [8] is 6.13; in the experiment with SW-620, 6.26; in the experiment on Hs-578T [9], 6.23; in the experiment with NCI-H358 it was 6.15; in the experiment on Hs-578T [10], 6.24; with MDA-MB-435 [11], 6.23.

For `COc1ccc(Sc2cccc3c2C(=O)C=CC3=O)cc1`, the pIC50 with Trypanosoma cruzi [7] is 5.12.

On to `O=C1c2ccccc2C(=O)c2oc(-c3cccc(Cl)c3)nc21`, for which the pIC50 was 7.52 with LNCaP and 7.10 in the experiment with PC-3.

Regarding `O=C1C(=O)c2ccccc2C2=C1C1(C(=O)Nc3ccc(OC(F)(F)F)cc31)N1NN=NC1=N2` (stereo not given), the pIC50 in the experiment with HepG2 and with L02 was 4.44 to 5.54 in each case.

Regarding `CC1(C)OC2=C(C(=O)C(=O)c3ccccc32)[C@H](n2cc(C[Se]c3ccc(F)cc3)nn2)[C@H]1Br`, the pIC50 was 6.23 in the experiment on HL-60 [5], 6.44 in the experiment with L929 and 6.43 with HCT-116 [12].

`CC1(C)CCc2c(c3ccccc3c3nc4cc(Nc5ccccc5)/c(=N/c5ccccc5)cc-4n(-c4ccccc4)c23)O1`: in the experiment with Trypanosoma cruzi [13], the “Ratio IC50” value is on record as 61.3.

`CC1(C)CCc2c(c3ccccc3c3nc4c5cccnc5c5ncccc5c4nc23)O1` gave a pIC50 with Trypanosoma cruzi [14] of 5.31.

`O=C1C(=O)c2ccccc2C2=C1C1(C(=O)Nc3c(Br)cccc31)N1NN=NC1=N2` (stereo not given): the pIC50 with HepG2 and with L02 was 4.44 to 5.54 in each case.

`Cc1ccc(Sc2cccc3c2C(=O)C=CC3=O)cc1` showed a pIC50 with Trypanosoma cruzi [7] of 5.60.

`CC1(C)OC2=C(C(=O)C(=O)c3ccccc32)C1CO` (stereo not given) gave a pIC50 with MCF7 of 6.34.

On to `CC1(C)O[C@H]2O[C@H](COC3C4=C(OC3(C)C)c3ccccc3C(=O)C4=O)[C@@H](OCc3ccccc3)[C@H]2O1` (stereo not given in full), for which the pIC50 was 6.47 in the experiment on SF-295 [15], 6.05 with OVCAR-8, 6.29 in the experiment with HCT-116 [16] and 6.80 in the experiment on HL-60 [17].

Consider `O=C1C(=O)c2ccccc2C2=C1C1(C(=O)Nc3cc(Br)ccc31)N1NN=NC1=N2` (stereo not given), for which the pIC50 in the experiment on HepG2 and in the experiment on L02 was 4.44 to 5.54 throughout.
